Source: paper PMC6494997, “Studies on Isoniazid Derivatives through a Medicinal Chemistry Approach for the Identification of New Inhibitors of Urease and Inflammatory Markers” (Scientific Reports, 2019)
≈ marks a conversion by molar mass, not a printed value. Like-named read-outs stand apart in the source and are kept apart here.

Experiments:
urease [1] = target: T1, urease (Canavalia ensiformis, UniProt P07374); details: reported literature value of the standard; read-out: Urease Inhibition Activity IC50 ± SEM (Reported) (converted); cited from earlier work
urease [2] = target: T1, urease; assay: biochemical
Protocol: During the experiments all the compounds were evaluated at 0.5 mM each in triplicate.

in vitro = details: mouse
Protocol: (§1) In this experiment all the compounds were evaluated at 30 µM each in triplicate.

[3] = test system: ROS from zymosan activated whole blood cells; assay: Oxidative burst assay (in vitro anti-inflammatory, ROS inhibition); format: cell-based, human; details: for Anti-Inflammatory Activity IC50 ± SD: observed, ROS inhibition, zymosan activated whole blood cells, screening concentration 25 µg/mL, <50% inhibition = inactive; for IC50: Homo sapiens, Whole blood cell, read-out: Anti-Inflammatory Activity IC50 ± SD
Protocol: In this experiment all the compounds were evaluated at 25 µg/mL, each in triplicate.
All studies on human blood cells was carried out after an approval from independent ethics committee (Prof. Dr. Ghazala H. Rizwani Chair, IEC, Prof. Qamar Amin, Prof, Dr. Muddasir Uddin, Dr. Shahnaz Ghazi, Dr. SamiuzZaman, Prof. Dr. Ahsana Dar Farooq, Dr. M. Raza Shah member IEC), International Center for Chemical and Biological Sciences, University of Karachi, No: ICCBS/IEC-008-BC-2015/Protocol/1.0. Informed consents were obtained from the volunteers before drawing the blood. All the experiments were performed in accordance with relevant guidelines and regulations.

[4] = test system: 3T3 normal (mouse fibroblast) cell line; assay: 3T3 cytotoxicity assay (MTT); details: read-out: Cytotoxicity (3T3 Cell line) IC50 ± SD; observed; screened at 30 µM; <50% inhibition at 30 µM = inactive
Protocol: as §1

[5] = test system: 3T3 normal (mouse fibroblast) cell line
Protocol: as §1

[6] = test system: ROS from zymosan activated whole blood cells; design: method as in PMID 6178787, PMID 28202019; details: reported literature value of the standard; cited from earlier work
[7] = 3T3 cytotoxicity assay (MTT); details: mouse
Protocol: as §1

[8] = observed, screening concentration 0.5 mM, <50% inhibition = inactive, Insoluble = partially soluble in HPLC methanol of the protocol, read-out: Urease Inhibition Activity IC50 ± SEM
[9] = observed, screening concentration 0.5 mM, <50% inhibition = inactive, Insoluble = partially soluble in HPLC methanol of the protocol

T1 sequence (P07374 whole entry, looked up): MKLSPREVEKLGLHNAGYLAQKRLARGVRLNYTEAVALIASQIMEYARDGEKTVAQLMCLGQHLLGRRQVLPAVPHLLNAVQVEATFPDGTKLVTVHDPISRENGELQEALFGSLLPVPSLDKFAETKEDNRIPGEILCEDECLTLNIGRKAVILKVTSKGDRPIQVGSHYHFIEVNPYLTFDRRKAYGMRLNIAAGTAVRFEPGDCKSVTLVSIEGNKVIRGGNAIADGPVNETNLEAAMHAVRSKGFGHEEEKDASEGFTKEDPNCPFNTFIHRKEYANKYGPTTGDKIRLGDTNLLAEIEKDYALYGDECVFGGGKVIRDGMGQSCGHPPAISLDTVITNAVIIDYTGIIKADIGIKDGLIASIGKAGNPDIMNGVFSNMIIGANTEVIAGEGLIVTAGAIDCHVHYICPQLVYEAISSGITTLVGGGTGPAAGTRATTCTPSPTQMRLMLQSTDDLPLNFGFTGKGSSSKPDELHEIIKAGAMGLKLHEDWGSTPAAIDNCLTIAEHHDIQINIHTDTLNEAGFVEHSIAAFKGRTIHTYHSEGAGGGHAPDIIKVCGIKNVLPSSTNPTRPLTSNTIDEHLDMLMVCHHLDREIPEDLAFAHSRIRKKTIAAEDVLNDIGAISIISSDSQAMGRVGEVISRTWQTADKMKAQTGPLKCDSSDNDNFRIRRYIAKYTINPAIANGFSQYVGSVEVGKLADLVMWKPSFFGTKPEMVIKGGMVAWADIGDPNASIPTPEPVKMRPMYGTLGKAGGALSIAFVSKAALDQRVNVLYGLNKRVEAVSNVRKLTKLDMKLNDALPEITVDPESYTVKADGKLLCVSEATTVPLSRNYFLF

| Compound | IC50 (in vitro) [µM] | melting point [°C] | Anti-Inflammatory Activity IC50 ± SD [3] | IC50 (urease [2]) [µM] | other results |
| --- | --- | --- | --- | --- | --- |
| CC(=O)NO [Aetohydaoxamic acid, acetohydroxamic acid, reference compound] |  |  |  |  | IC50 (urease [1]): 17.2 µM; IC50 (urease [2]; [8]): 20.3 ± 0.4 µM |
| O=C(NNC(=S)Nc1ccccc1F)c1ccncc1 [Compound 3, N-(2-Fluorophenyl)-2-isonicotinoylhydrazinecarbothioamide] | > 30 | 241 to 242 | Inactive |  | Urease Inhibition Activity IC50 ± SEM (urease [2]; [9]): Inactive^c |
| O=C(NNC(=S)Nc1cccc(Cl)c1Cl)c1ccncc1 [Compound 4, N-(2,3-Dichlorophenyl)-2-isonicotinoylhydrazinecarbothioamide] | > 30 | 198 to 199 | Inactive | 38.8 ± 0.35 |  |
| O=C(NNC(=S)Nc1cc(Cl)ccc1Cl)c1ccncc1 [Compound 5, N-(2,5-Dichlorophenyl)-2-isonicotinoylhydrazinecarbothioamide] | > 30 | 172 to 173 |  | 36.5 ± 0.14 | IC50 [3]: 18.5 ± 1 µg/mL (≈ 54.2 µM) |
| O=C(NNC(=S)Nc1c(Cl)cccc1Cl)c1ccncc1 [Compound 6, N-(2,6-Dichlorophenyl)-2-isonicotinoylhydrazinecarbothioamide] | > 30 | 127 to 128 | Inactive |  | Urease Inhibition Activity IC50 ± SEM (urease [2]; [9]): Insoluble |
| O=C(NNC(=S)Nc1c(F)cccc1F)c1ccncc1 [Compound 7, N-(2,6-Difluorophenyl)-2-isonicotinoylhydrazinecarbothioamide] | > 30 | 248 to 249 | Inactive | 46.3 ± 0.43 |  |
| O=C(NNC(=S)Nc1cc(C(F)(F)F)ccc1Cl)c1ccncc1 [Compound 8, N-(2-Chloro-5-(trifluoromethyl)phenyl)-2-isonicotinoylhydrazinecarbothioamide] | > 30 | 183 to 184 | Inactive | 44.4 ± 0.43 |  |
| O=C(NNC(=S)Nc1ccc(Cl)c(C(F)(F)F)c1)c1ccncc1 [Compound 9, N-(4-Chloro-3-(trifluoromethyl)phenyl)-2 isonicotinoylhydrazinecarbothioamide] | > 30 | 231 to 232 |  | 14.2 ± 1.38 | IC50 [3]: 26.7 ± 2.5 µg/mL (≈ 71.2 µM) |
| N#Cc1ccc(NC(=S)NNC(=O)c2ccncc2)cc1 [Compound 10, N-(4-Cyanophenyl)-2-isonicotinoylhydrazinecarbothioamide] | > 30 | 162 to 163 | Inactive | 15.7 ± 1.32 |  |
| O=C(NNC(=S)Nc1ccc(OC(F)(F)F)cc1)c1ccncc1 [Compound 11, 2-Isonicotinoyl-N-(4-(trifluoromethoxy)phenyl) hydrazine carbothioamide] |  |  | Inactive |  | IC50 [4]: > 30 µM; IC50 (urease [2]; [8]): 13.2 ± 1.64 µM |
| O=C(NNC(=S)Nc1c(F)c(F)c(F)c(F)c1F)c1ccncc1 [Compound 12, 2-Isonicotinoyl-N-(perfluorophenyl) hydrazinecarbothioamide] |  |  | 27.7 ± 2.4 µg/mL |  | IC50 (urease [2]; [8]): 12.3 ± 1.04 µM; IC50 [5]: > 30 µM |
| O=C(NNC(=S)NC1CCCC1)c1ccncc1 [Compound 13, N-Cyclopentyl-2-isonicotinoylhydrazinecarbothioamide] | > 30 | 223 to 224 | Inactive | 13.6 ± 1.61 |  |
| O=C(NNC(=S)Nc1ccccc1Br)c1ccncc1 [Compound 14, N-(2-Bromophenyl)-2-isonicotinoylhydrazinecarbothioamide] | > 30 | 156 to 157 | Inactive | 35.8 ± 1.89 |  |
| O=C(NNC(=S)Nc1ccc(F)cc1F)c1ccncc1 [Compound 15, N-(2,4-Difluorophenyl)-2-isonicotinoylhydrazinecarbothioamide] | > 30 | 191 to 192 | Inactive | 34.1 ± 0.45 |  |
| O=C(NNC(=S)Nc1cccc(F)c1)c1ccncc1 [Compound 16, N-(3-Fluorophenyl)-2-isonicotinoylhydrazinecarbothioamide] | > 30 | 174 to 175 |  | 21.5 ± 1.3 | IC50 [3]: 29.7 ± 1.7 µg/mL (≈ 102 µM) |
| O=C(NNC(=S)Nc1cccc(I)c1)c1ccncc1 [Compound 17, N-(3-Iodophenyl)-2-isonicotinoylhydrazinecarbothioamide] | > 30 | 192 to 193 |  | 14.7 ± 1.01 | IC50 [3]: 36.9 ± 3 µg/mL (≈ 92.7 µM) |
| O=C(NNC(=S)Nc1ccc(Cl)cc1)c1ccncc1 [Compound 18, N-(4-Chlorophenyl)-2-isonicotinoylhydrazine carbothioamide] | 29.5 ± 1.9 |  | Inactive | 26.3 ± 1.59 |  |
| O=C(NNC(=S)Nc1ccc(F)cc1)c1ccncc1 [Compound 19, N-(4-Fluorophenyl)-2-isonicotinoylhydrazinecarbothioamide] | > 30 | 191 to 192 | Inactive | 12.7 ± 0.8 |  |
| COc1ccc(NC(=S)NNC(=O)c2ccncc2)cc1 [Compound 20, 2-Isonicotinoyl-N-(4-methoxyphenyl) hydrazinecarbothioamide] |  |  | Inactive |  | IC50 (urease [2]; [8]): 22 ± 1.15 µM; IC50 [5]: > 30 µM |
| O=C(NNC(=S)Nc1cc(Cl)c(Cl)cc1Cl)c1ccncc1 [Compound 21, Isonicotinoyl-N-(2,4,5-trichlorophenyl) hydrazinecarbothioamide] |  |  | Inactive |  | IC50 (urease [2]; [8]): 28.2 ± 1.48 µM; IC50 [5]: > 30 µM |
| O=C(NNC(=S)Nc1cccc(Br)c1)c1ccncc1 [Compound 22, N-(3-Bromophenyl)-2-isonicotinoylhydrazinecarbothioamide] | > 30 | 192 to 193 |  | 22.1 ± 1.91 | IC50 [3]: 25.1 ± 0.4 µg/mL (≈ 71.5 µM) |
| O=C(NNC(=S)NC1CCCCC1)c1ccncc1 [Compound 23, N-Cyclohexyl-2-isonicotinoylhydrazinecarbothioamide] | > 30 | 212 to 213 |  | 22.4 ± 1.83 | IC50 [3]: 12.3 ± 1.2 µg/mL (≈ 44.2 µM) |
| O=C(NNC(=S)Nc1ccccc1)c1ccncc1 [Compound 24, 2-Isonicotinoyl-N-phenylhydrazinecarbothioamide] | > 30 |  | Inactive | 63.2 ± 2 |  |
| CCCCCCNC(=S)NNC(=O)c1ccncc1 [Compound 25, N-Hexyl-2-isonicotinoylhydrazinecarbothioamide] | > 30 | 215 to 216 | Inactive |  | Urease Inhibition Activity IC50 ± SEM (urease [2]; [9]): Insoluble |
| O=C(NNC(=S)Nc1cccc(N=C=S)c1)c1ccncc1 [Compound 26] |  | 195 to 196 |  |  |  |
| O=C(NNC(=S)Nc1cccc([N+](=O)[O-])c1)c1ccncc1 [Compound 27, 2-Isonicotinoyl-N-(3-nitrophenyl) hydrazinecarbothioamide] |  |  | Inactive |  | Urease Inhibition Activity IC50 ± SEM (urease [2]; [9]): Insoluble^d; IC50 [5]: > 30 µM |
| CC(C)Cc1ccc(C(C)C(=O)O)cc1 (stereo not shown) [Ibuprofen, reference compound] |  |  |  |  | Anti-Inflammatory Activity IC50 ± SD (reported) [6]: 12.97 ± 0.23 µg/mL; IC50 [3]: 11.2 ± 1.9 µg/mL (≈ 54.3 µM) |
| NNC(=O)c1ccncc1 [Isoniazid(1), Isoniazid] |  |  | Inactive |  | IC50 [7]: 28.5 ± 1.2 µM; Urease Inhibition Activity IC50 ± SEM (urease [2]; [9]): Inactive |
